Experimental data from patent US20260297085A1, “1 H-PYRROLO[2,3-B]PYRIDIN-4-YL]-2-OXOPYRROLIDINE-3-CARBONITRILE DERIVATIVES AS TYROSINE KINASE 2 (TYK2) INHIBITORS FOR THE TREATMENT OF INFLAMMATORY DISEASES” (BIOGEN MA INC., priority 2023, published 2026).
Counter-ions that a name gives are not always drawn.

Tests used:
[1] = molecular target: T1, human JAK1 kinase domain (JH1) (Homo sapiens, UniProt P23458); test: JH1 biochemical assay for JAK1 (ADP-Glo kinase assay, recombinant JH1 catalytic domain, JAK3-342 peptide, 35 μM ATP)
T1 construct: recombinantly generated catalytic kinase (also known as JH1) domain of human JAK1, JAK2, JAK3 and TYK2
T1 sequence (P23458 875-1153 limits assumed): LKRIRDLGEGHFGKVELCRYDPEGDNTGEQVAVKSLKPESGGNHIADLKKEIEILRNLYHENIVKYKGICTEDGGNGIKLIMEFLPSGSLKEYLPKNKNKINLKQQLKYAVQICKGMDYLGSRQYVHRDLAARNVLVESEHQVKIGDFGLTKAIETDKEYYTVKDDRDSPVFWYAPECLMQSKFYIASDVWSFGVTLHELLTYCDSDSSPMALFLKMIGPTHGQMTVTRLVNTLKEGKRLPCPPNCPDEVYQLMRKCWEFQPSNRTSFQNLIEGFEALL
Summary of the method: (§1)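 Luminescent ADP read-out after residual ATP depletion, 100 min reaction. Kinase domain concentrations were 4 nM (JAK1), 0.2 nM (JAK2), 0.3 nM (JAK3) and 2 nM (TYK2), each with 50 μM peptide. IC50 values came from 4-parameter logistic fits over 11 points, 3-fold steps, top 10 μM or 1 μM.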

[2] = molecular target: T2, human TYK2 kinase domain (JH1) (Homo sapiens, UniProt P29597); test: JH1 biochemical assay for TYK2 (ADP-Glo kinase assay, recombinant JH1 catalytic domain, JAK3-974 peptide, 10 μM ATP)
T2 construct: recombinantly generated catalytic kinase (also known as JH1) domain of human JAK1, JAK2, JAK3 and TYK2
T2 sequence (P29597 897-1176 limits assumed): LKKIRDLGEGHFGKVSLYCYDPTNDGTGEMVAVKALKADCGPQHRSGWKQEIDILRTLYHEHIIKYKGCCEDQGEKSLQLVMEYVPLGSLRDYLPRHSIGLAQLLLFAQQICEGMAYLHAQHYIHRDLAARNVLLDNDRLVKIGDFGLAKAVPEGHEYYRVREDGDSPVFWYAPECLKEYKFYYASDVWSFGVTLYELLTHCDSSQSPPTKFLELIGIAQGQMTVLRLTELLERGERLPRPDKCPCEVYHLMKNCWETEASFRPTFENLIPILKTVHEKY
Summary of the method: as §1

[3] = molecular target: T3, human JAK2 kinase domain (JH1) (Homo sapiens, UniProt O60674); test: JH1 biochemical assay for JAK2 (ADP-Glo kinase assay, recombinant JH1 catalytic domain, JAK3-974 peptide, 15 μM ATP)
T3 construct: recombinantly generated catalytic kinase (also known as JH1) domain of human JAK1, JAK2, JAK3 and TYK2
T3 sequence (O60674 849-1124 limits assumed): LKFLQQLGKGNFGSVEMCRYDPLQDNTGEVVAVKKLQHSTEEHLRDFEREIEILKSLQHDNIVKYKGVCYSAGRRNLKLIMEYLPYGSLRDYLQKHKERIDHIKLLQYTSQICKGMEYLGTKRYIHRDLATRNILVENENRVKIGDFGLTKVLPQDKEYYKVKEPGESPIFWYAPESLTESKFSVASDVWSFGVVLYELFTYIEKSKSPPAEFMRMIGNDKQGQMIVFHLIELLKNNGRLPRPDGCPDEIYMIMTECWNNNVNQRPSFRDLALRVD
Summary of the method: as §1

[4] = molecular target: T4, human JAK3 kinase domain (JH1) (Homo sapiens, UniProt P52333); test: JH1 biochemical assay for JAK3 (ADP-Glo kinase assay, recombinant JH1 catalytic domain, JAK3-974 peptide, 4 μM ATP)
T4 construct: recombinantly generated catalytic kinase (also known as JH1) domain of human JAK1, JAK2, JAK3 and TYK2
T4 sequence (P52333 822-1111 limits assumed): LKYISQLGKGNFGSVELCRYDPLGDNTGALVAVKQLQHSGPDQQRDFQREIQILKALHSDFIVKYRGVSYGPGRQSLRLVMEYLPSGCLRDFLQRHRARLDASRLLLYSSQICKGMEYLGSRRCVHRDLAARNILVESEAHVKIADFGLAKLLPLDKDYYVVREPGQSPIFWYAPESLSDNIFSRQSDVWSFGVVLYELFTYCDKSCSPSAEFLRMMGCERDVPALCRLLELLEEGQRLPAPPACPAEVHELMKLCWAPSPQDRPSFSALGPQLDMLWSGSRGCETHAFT
Summary of the method: as §1

SMILES | IC50 ([1]; JH1 kinase domain, ADP-Glo) [µM] | IC50 ([2]; JH1 kinase domain, ADP-Glo) [µM] | IC50 ([3]; JH1 kinase domain, ADP-Glo) [µM] | IC50 ([4]; JH1 kinase domain, ADP-Glo) [µM] | IC50 ([1]; JAK1 JH1, ADP-Glo) [µM] | IC50 ([2]; TYK2 JH1, ADP-Glo) [µM] | IC50 ([3]; JAK2 JH1, ADP-Glo) [µM] | IC50 ([4]; JAK3 JH1, ADP-Glo) [µM]
C[C@@H]1CN(c2ccnn3cc(-c4cnn5c4CCCC5)cc23)C(=O)[C@]1(C#N)C1CC1 [Example 173, (3R,4S)-3-cyclopropyl-4-methyl-2-oxo-1-(6-(4,5,6,7-tetrahydropyrazolo[1,5-a]pyridin-3-yl)pyrrolo[1,2-b]pyridazin-4-yl)pyrrolidine-3-carbonitrile] | 0.1 to 1 | 0.005 to 0.02 | 0.1 to 1 | 0.1 to 1 |  |  |  | 
C[C@H]1C[C@](C#N)(C2CC2)C(=O)N1c1ccnn2cc(-c3cnn(C)c3)cc12 [Example 30, (3R,5S)-3-cyclopropyl-5-methyl-1-(6-(1-methyl-1H-pyrazol-4-yl)pyrrolo[1,2-b]pyridazin-4-yl)-2-oxopyrrolidine-3-carbonitrile] | > 10 | > 0.1 | > 10 | > 10 |  |  |  | 
Cc1csc(-c2cc3c(N4C[C@@H](C)[C@@](C#N)(C5CC5)C4=O)ccnn3c2)n1 [Example 113, (3R,4S)-3-cyclopropyl-4-methyl-1-(6-(4-methylthiazol-2-yl)pyrrolo[1,2-b]pyridazin-4-yl)-2-oxopyrrolidine-3-carbonitrile trifluoroacetate] | 0.1 to 1 | 0.02 to 0.05 | 1 to 5 | 0.1 to 1 |  |  |  | 
C[C@@H]1CN(c2nc(-c3cncnc3)cn3nccc23)C(=O)[C@]1(C#N)C1CC1 [Example 265, (3R,4S)-3-cyclopropyl-4-methyl-2-oxo-1-(6-(pyrimidin-5-yl)pyrazolo[1,5-a]pyrazin-4-yl)pyrrolidine-3-carbonitrile trifluoroacetate] |  |  |  |  | 1 to 5 | 0.05 to 0.1 | 1 to 5 | 1 to 5
Cn1cc(-c2cc3c(N4CC[C@](C)(C#N)C4=O)ccnn3c2)cn1 (single isomer, unassigned) [Example 39] | > 10 | > 0.1 | > 10 | > 10 |  |  |  | 
C[C@@H]1CN(c2nc(-c3cncc(Cl)c3)cn3nccc23)C(=O)[C@]1(C#N)C1CC1 [Example 248, (3R,4S)-1-(6-(5-chloropyridin-3-yl)pyrazolo[1,5-a]pyrazin-4-yl)-3-cyclopropyl-4-methyl-2-oxopyrrolidine-3-carbonitrile trifluoroacetate] |  |  |  |  | 0.1 to 1 | 0.02 to 0.05 | 1 to 5 | 1 to 5
Cn1cc(-c2cc3c(N4CC[C@](C#N)(C5CCC5)C4=O)ccnn3c2)cn1 (single isomer, unassigned) [Example 47] | > 10 | > 0.1 | 5 to 10 | > 10 |  |  |  | 
C[C@@H]1CN(c2ccnn3cc(-c4cccc5cnn(C)c45)cc23)C(=O)[C@]1(C#N)C1CC1 [Example 78, (3R,4S)-3-cyclopropyl-4-methyl-1-(6-(1-methyl-1H-indazol-7-yl)pyrrolo[1,2-b]pyridazin-4-yl)-2-oxopyrrolidine-3-carbonitrile] | > 10 | > 0.1 | > 10 | > 10 |  |  |  | 
Cc1ccc(O)c(-c2cc3c(N4C[C@@H](C)[C@@](C#N)(C5CC5)C4=O)ccnn3c2)n1 [Example 140, (3R,4S)-3-cyclopropyl-1-(6-(3-hydroxy-6-methylpyridin-2-yl)pyrrolo[1,2-b]pyridazin-4-yl)-4-methyl-2-oxopyrrolidine-3-carbonitrile trifluoroacetate] | 1 to 5 | 0.05 to 0.1 | > 10 | 5 to 10 |  |  |  | 
Cc1ccc2nc(-c3cc4c(N5C[C@@H](C)[C@@](C#N)(C6CC6)C5=O)ccnn4c3)nn2c1 [Example 109, (3R,4S)-3-cyclopropyl-4-methyl-1-(6-(6-methyl-[1,2,4]triazolo[1,5-a]pyridin-2-yl)pyrrolo[1,2-b]pyridazin-4-yl)-2-oxopyrrolidine-3-carbonitrile trifluoroacetate] | 1 to 5 | 0.05 to 0.1 | 5 to 10 | 1 to 5 |  |  |  | 
COc1ccnc(-c2cc3c(N4C[C@@H](C)[C@@](C#N)(C5CC5)C4=O)ccnn3c2)n1 [Example 122, (3R,4S)-3-cyclopropyl-1-(6-(4-methoxypyrimidin-2-yl)pyrrolo[1,2-b]pyridazin-4-yl)-4-methyl-2-oxopyrrolidine-3-carbonitrile trifluoroacetate] | 5 to 10 | > 0.1 | > 10 | > 10 |  |  |  | 
C[C@@H]1CN(c2ccnn3cc(-c4cnn(C)n4)cc23)C(=O)[C@]1(C#N)C1CC1 [Example 99, (3R,4S)-3-cyclopropyl-4-methyl-1-(6-(2-methyl-2H-1,2,3-triazol-4-yl)pyrrolo[1,2-b]pyridazin-4-yl)-2-oxopyrrolidine-3-carbonitrile trifluoroacetate] | 0.1 to 1 | 0.02 to 0.05 | 1 to 5 | 0.1 to 1 |  |  |  | 
C[C@@H]1CN(c2ccnn3cc(-c4cnccn4)cc23)C(=O)[C@]1(C#N)C1CC1 [Example 151, (3R,4S)-3-cyclopropyl-4-methyl-2-oxo-1-(6-(pyrazin-2-yl)pyrrolo[1,2-b]pyridazin-4-yl)pyrrolidine-3-carbonitrile trifluoroacetate] | 1 to 5 | 0.05 to 0.1 | 1 to 5 | 1 to 5 |  |  |  | 
C[C@@H]1CN(c2nc(-c3cncc(F)c3)cn3nccc23)C(=O)[C@]1(C#N)C1CC1 [Example 246, (3R,4S)-3-cyclopropyl-1-(6-(5-fluoropyridin-3-yl)pyrazolo[1,5-a]pyrazin-4-yl)-4-methyl-2-oxopyrrolidine-3-carbonitrile trifluoroacetate] |  |  |  |  | 0.1 to 1 | 0.005 to 0.02 | 0.1 to 1 | 0.1 to 1
CC[C@@]1(C#N)CCN(c2ccnn3cc(-c4cnn(C)c4)cc23)C1=O (single isomer, unassigned) [Example 43] | > 10 | > 0.1 | > 10 | > 10 |  |  |  | 
Cc1ncc(-c2cc3c(N4C[C@@H](C)[C@@](C#N)(C5CC5)C4=O)ccnn3c2)cn1 [Example 80, (3R,4S)-3-cyclopropyl-4-methyl-1-(6-(2-methylpyrimidin-5-yl)pyrrolo[1,2-b]pyridazin-4-yl)-2-oxopyrrolidine-3-carbonitrile] | 1 to 5 | 0.05 to 0.1 | 1 to 5 | 1 to 5 |  |  |  | 
Cn1cc(-c2cc3c(N4CC[C@@H](C5CC5)C4=O)ccnn3c2)cn1 (single isomer, unassigned) [Example 37] | > 10 | > 0.1 | 1 to 5 | 1 to 5 |  |  |  | 
C[C@@H]1CN(c2ccnn3cc(-n4ccccc4=O)cc23)C(=O)[C@]1(C#N)C1CC1 [Example 340, (3R,4S)-3-cyclopropyl-4-methyl-2-oxo-1-(6-(2-oxopyridin-1(2H)-yl)pyrrolo[1,2-b]pyridazin-4-yl)pyrrolidine-3-carbonitrile] |  |  |  |  | > 10 | > 0.1 | > 10 | 1 to 5
C[C@@H]1CN(c2cc(-c3cnn(C)c3)cc3nscc23)C(=O)[C@]1(C#N)C1CC1 [Example 351, (3R,4S)-3-cyclopropyl-4-methyl-1-(6-(1-methyl-1H-pyrazol-4-yl)benzo[c]isothiazol-4-yl)-2-oxopyrrolidine-3-carbonitrile] |  |  |  |  | 0.1 to 1 | 0.02 to 0.05 | 0.1 to 1 | 0.1 to 1
COc1ncc(-c2cc3c(N4C[C@@H](C)[C@@](C#N)(C5CC5)C4=O)ccnn3c2)cc1C#N [Example 85, 5-(4-((3R,4S)-3-cyano-3-cyclopropyl-4-methyl-2-oxopyrrolidin-1-yl)pyrrolo[1,2-b]pyridazin-6-yl)-2-methoxynicotinonitrile] | 1 to 5 | 0.02 to 0.05 | 1 to 5 | 1 to 5 |  |  |  | 
Cn1cc(-c2cc3c(N4CC[C@@](C(F)F)(C5CC5)C4=O)ccnn3c2)cn1 [Example 15, (R)-3-cyclopropyl-3-(difluoromethyl)-1-(6-(1-methyl-1H-pyrazol-4-yl)pyrrolo[1,2-b]pyridazin-4-yl)pyrrolidin-2-one] | 1 to 5 | > 0.1 | 1 to 5 | 1 to 5 |  |  |  | 
C[C@@H]1CN(c2ccnn3cc(-c4cc(C(F)(F)F)nn4C)cc23)C(=O)[C@]1(C#N)C1CC1 [Example 107, (3R,4S)-3-cyclopropyl-4-methyl-1-(6-(1-methyl-3-(trifluoromethyl)-1H-pyrazol-5-yl)pyrrolo[1,2-b]pyridazin-4-yl)-2-oxopyrrolidine-3-carbonitrile trifluoroacetate] | 1 to 5 | 0.02 to 0.05 | 1 to 5 | 1 to 5 |  |  |  | 
COc1cc(-c2cc3c(N4CC[C@](C#N)(C5CC5)C4=O)ccnn3c2)ccn1 [Example 13, (R)-3-cyclopropyl-1-(6-(2-methoxypyridin-4-yl)pyrrolo[1,2-b]pyridazin-4-yl)-2-oxopyrrolidine-3-carbonitrile] | 5 to 10 | > 0.1 | > 10 | > 10 |  |  |  | 
